Measurements published in patent US4988604A, “High contrast photographic element including an aryl sulfonamidophenyl hydrazide containing both thio and ethyleneoxy groups” (Eastman Kodak Company, priority 1990, dated 1991).

Experiments:
[1] = photographic performance of coatings containing nucleator: relative speed, dot quality, contrast (Example 1); conditions: for photographic speed (in words): comparison of tests of Table I; for Relative Speed: incorporated booster 64.6 mg/m^2, 1 minute at 35° C., pH 10.5; for DQ (contact screen exposed halftone dot quality): rated on a scale, 5 is excellent
Experimental: Each coating used in obtaining the data provided in this example was prepared on a polyester support, using a monodispersed 0.24 μm AgBrI (2.5 mol % iodide) iridium-doped emulsion at 3.51 g/m^2 Ag, 2.54 g gel/m^2, and 1.08 g latex/m^2 where the latex is a copolymer of methyl acrylate, 2-acrylamido-2-methylpropane sulfonic acid, and 2-acetoacetoxyethylmethylacrylate. The silver halide emulsion was spectrally sensitized with 214 mg/Ag mol of anhydro-5,5'-dichloro-9-ethyl-3,3'-di-(3-sulfopropyl) oxacarbocyanine hydroxide, triethylene salt and the emulsion layer was overcoated with gelatin containing polymethylmethacrylate beads. The nucleating agent was added as a methanol solution to the emulsion melts at a level in millimoles (mM) per mole of silver as hereinafter indicated. An "incorporated booster" was added as a methanol solution in an amount of 64.6 milligrams per square meter of photographic element. The compound employed as the "incorporated booster" is represented by the formula: [drawing 8] where Pr represents n-propyl. Coatings were exposed for five seconds to a 3000° K. tungsten light source and processed for 1 minute at 35° C. in the developer solution.
To prepare the developer solution, a concentrate was prepared from the following ingredients:
The concentrate was diluted at a ratio of one part of concentrate to two parts of water to produce a working strength developing solution with a pH of 10.5.
*DQ = contact screen exposed halftone dot quality rated on a scale where
is poor and 5 is excellent.

[2] = chemical spread: dot diameter growth rate of coatings containing nucleator (Example 2); conditions: for Dot Diameter Growth Rate: 10 to 60 seconds development
Text: Coatings similar to those described in Example 1 were examined for differences in the degree of image spreading, so-called chemical spread, that is inherent to high contrast, nucleation processes. The films were exposed 5 seconds with 3000K tungsten light through a 90%, 52 line per centimeter, round dot tint mask to produce hard 10% dots upon development for about 10 seconds in the developer described in Example 1. With extended development beyond 10 seconds (typical development times in practice are 30 to 60 seconds), the nucleation process entails fogging of unexposed silver halide at the dot edges and, in turn, causes the dot to grow in size. The growth of the dot was measured by monitoring the change in density of the developing tint with time from 10 to 60 seconds and converting the measured density to the equivalent dot diameter using the well known relation between integrated halftone density and dot size.

## CCCCCCCCOCCOCCOCCOCCSCC(=O)Nc1c(C)ccc(S(=O)(=O)Nc2ccc(NNC=O)cc2)c1C [Compound I-6]
[1]; Example 1
  screen-exposed halftone dot quality (in words): significant improvement in the screen-exposed halftone dot quality
[1]
  photographic speed (in words): the same speed was achieved in Test 1 even though the molar concentration of nucleator was one quarter of that used in Control Test B
[1]; nucleator 0.5 mM/Ag mole
  Relative Speed: 100
  DQ (contact screen exposed halftone dot quality): 4.5
[1]; nucleator 0.75 mM/Ag mole
  Relative Speed: 107
  DQ (contact screen exposed halftone dot quality): 4.5
[2]; Test 4 (one quarter the concentration) compared with Control Test A^1
  dot diameter growth rate or chemical spread (in words): much less
[2]; nucleator 0.50 mM/Ag mole
  Dot Diameter Growth Rate: 0.30 micrometers/sec
[2]; nucleator 1.0 mM/Ag mole
  Dot Diameter Growth Rate: 0.41 micrometers/sec

## CC(C)c1ccc(C(C)C)c(S(=O)(=O)Nc2ccc(NNC=O)cc2)c1 [Control A]
[1]; nucleator 1.0 mM/Ag mole
  Relative Speed: 87
  DQ (contact screen exposed halftone dot quality): 3.5
[1]; nucleator 2.0 mM/Ag mole
  Relative Speed: 100
  DQ (contact screen exposed halftone dot quality): 4
[2]; nucleator 2.0 mM/Ag mole
  Dot Diameter Growth Rate: 0.60 micrometers/sec

## CCCCCCCCSCC(=O)Nc1c(C)ccc(S(=O)(=O)Nc2ccc(NNC=O)cc2)c1C [Control C]
[1]
  photographic speed (in words): significantly lowers the photographic speed relative to the non-thio control of Test A
[1]; nucleator 1.0 mM/Ag mole
  Relative Speed: 68
  DQ (contact screen exposed halftone dot quality): 3.5
[1]; nucleator 2.0 mM/Ag mole
  Relative Speed: 68
  DQ (contact screen exposed halftone dot quality): 3.5
